# Assay results as given in patent publication US20170368082A1, “FORMULATIONS OF BRINCIDOFOVIR” (priority 2016, published 2017).
# Experiment: Tissue distribution by quantitative whole-body autoradiography (QWBA)
# Format: in vivo, male Sprague Dawley and Long-Evans rats
# Details: for Cmax Ratio (PO/IV) / AUCall Ratio (PO/IV): 15 mg/kg, Group 7 vs Group 4
# Description: The study utilized 4 groups of male SD rats (albino), and 3 groups of male LE rats (pigmented); a total of 39 rats. All animals were obtained from Hilltop Lab Animals, Inc. (Scottdale, Pa.). […] Rats in Group 5 were administered a single 2-h IV infusion of [^14C]brincidofovir at a target dose of 2 mg/kg. […] Three dosing formulations (one for high dose IV, one for low dose IV, and one for PO dose) were prepared at QPS on the day of dosing. The IV formulation for Groups 1, 2, 3, and 4 contained a vehicle of 10 mM sodium phosphate buffer in 5% dextrose solution at pH 8.0(±0.1).
# Each animal, at their respective termination time points, was euthanized for QWBA analysis immediately after blood collection. One rat per time point per Group was euthanized as listed below.
# The blood samples were maintained on wet ice (approximately 4° C.) and then centrifuged to obtain plasma within 1 h of the blood collection time. Centrifuge settings were recorded in the study notebook. Duplicate aliquots of plasma (0.050 mL) were analyzed for radioactivity using direct counting by LSC, and residual plasma was stored at approximately −70° C. and was saved for possible future analysis under a separate study protocol. Residual red blood cells were discarded as radioactive waste.
# The pinna, distal limbs, hair, and tail were removed from each frozen carcass and each frozen carcass was embedded in an aqueous suspension of approximately 2% (w/v) carboxymethylcellulose and frozen into a block. The blocks were stored at approximately −20° C. prior to sectioning. Each blocked carcass was mounted on the object stage of a cryomicrotome (Leica CM3600 Cryomacrocut, Nussloch, Germany and Vibratome 9800, St. Louis, Mo.) maintained at approximately −20° C. and internal standards (3), which were plasma fortified with [^14C]-glucose at one concentration (approximately 0.05 μCi/mL), were placed into the frozen blocks, prior to sectioning, and were used for section thickness quality control. A number of whole-body sections (approximately 40 μm thick) were taken in the sagittal plane at various levels of interest using a whole-body cryomicrotome set at −20° C. Sagittal sections (20-50 μm thick) of frozen carcasses were exposed to phosphor imaging plates. Regions of images in tissues were converted to concentrations using standards. All of the major tissues, organs, and biological fluids were represented.
# Tissue concentration data was determined for the following tissues and/or contents: adipose (brown and white), adrenal gland, bile (in duct), blood (cardiac), bone, bone marrow, brain (cerebrum, cerebellum, medulla), cecum (and contents), large intestine (and contents), epididymis, esophagus, eye (uvea and lens), Harderian gland, heart, kidney (cortex and medulla), liver, lung, lymph node, pancreas, pituitary gland, prostate gland, salivary gland, seminal vesicles, skeletal muscle, skin (pigmented and non-pigmented), small intestine (and contents), stomach (gastric mucosa and contents), spleen, spinal cord, testis, thymus, thyroid, and urinary bladder (and contents).
# The imaging plate and sections were placed in light-tight exposure cassettes, in a copper-lined lead safe, for a 4-day exposure at room temperature. […] Quantification was performed by image densitometry using MCD image analysis software (v. 7.0, Interfocus Imaging Ltd) and a standard curve constructed from the integrated response [i.e., Molecular Dynamics Counts per square millimeter (MDC/mm^2)] and the nominal concentrations of the ^14C-calibration standards. The concentrations of radioactivity were expressed as the μg equivalents of [^14C]brincidofovir per gram sample (μg equiv/g). A lower limit of quantification (LLOQ) was applied to the data (See section 6.7.4).
# Tissue concentrations that fell below the LLOQ were identified as being below the quantification limit (BQL). Tissue areas that were not visualized on autoradiographic images were identified as no sample (NS) and reported as BQL.
smiles,measurement,setting,value
CCCCCCCCCCCCCCCCOCCCOP(=O)(O)CO[C@H](CO)Cn1ccc(N)nc1=O [[^14C] brincidofovir],Cmax Ratio (PO/IV),Liver,0.16
same,AUCall,"Liver, 2 h IV infusion 15 mg/kg, Group 4",2149.7645 μg equiv · h/g
same,Tissue Concentration (168 h),"Liver, 2 h IV infusion 15 mg/kg, Group 4, LLOQ 0.036",0.451 μg equiv/g
same,Tissue Concentration (168 h),"Liver, PO 15 mg/kg, Group 7, LLOQ 0.034",0.393 μg equiv/g
same,AUCall,"Liver, PO 15 mg/kg, Group 7",1426.6340 μg equiv · h/g
same,AUCall Ratio (PO/IV),Lung,0.29
same,Cmax Ratio (PO/IV),Lung,0.16
same,AUCall,"Lung, 2 h IV infusion 15 mg/kg, Group 4",180.1960 μg equiv · h/g
same,Tissue Concentration (168 h),"Lung, 2 h IV infusion 15 mg/kg, Group 4, LLOQ 0.036",0.178 μg equiv/g
same,Tissue Concentration (168 h),"Lung, PO 15 mg/kg, Group 7, LLOQ 0.034",0.065 μg equiv/g
same,AUCall,"Lung, PO 15 mg/kg, Group 7",53.1145 μg equiv · h/g
same,AUCall Ratio (PO/IV),Lymph Node,0.41
same,Cmax Ratio (PO/IV),Lymph Node,0.11
same,AUCall,"Lymph Node, 2 h IV infusion 15 mg/kg, Group 4",208.8530 μg equiv · h/g
same,Tissue Concentration (168 h),"Lymph Node, 2 h IV infusion 15 mg/kg, Group 4, LLOQ 0.036",0.247 μg equiv/g
same,Tissue Concentration (168 h),"Lymph Node, PO 15 mg/kg, Group 7, LLOQ 0.034",0.129 μg equiv/g
same,AUCall,"Lymph Node, PO 15 mg/kg, Group 7",85.04 μg equiv · h/g
same,AUCall Ratio (PO/IV),Pancreas,0.29
same,Cmax Ratio (PO/IV),Pancreas,0.13
same,AUCall,"Pancreas, 2 h IV infusion 15 mg/kg, Group 4",36.2010 μg equiv · h/g
same,Tissue Concentration (168 h),"Pancreas, 2 h IV infusion 15 mg/kg, Group 4, LLOQ 0.036",BQL
same,Tissue Concentration (168 h),"Pancreas, PO 15 mg/kg, Group 7, LLOQ 0.034",BQL
same,AUCall,"Pancreas, PO 15 mg/kg, Group 7",10.3720 μg equiv · h/g
same,AUCall Ratio (PO/IV),Pituitary Gland,0.20
same,Cmax Ratio (PO/IV),Pituitary Gland,0.05
same,AUCall,"Pituitary Gland, 2 h IV infusion 15 mg/kg, Group 4",155.1085 μg equiv · h/g
same,Tissue Concentration (168 h),"Pituitary Gland, 2 h IV infusion 15 mg/kg, Group 4, LLOQ 0.036",0.189 μg equiv/g
same,Tissue Concentration (168 h),"Pituitary Gland, PO 15 mg/kg, Group 7, LLOQ 0.034",0.042 μg equiv/g
same,AUCall,"Pituitary Gland, PO 15 mg/kg, Group 7",30.5073 μg equiv · h/g
same,AUCall Ratio (PO/IV),Prostate Gland,0.62
same,Cmax Ratio (PO/IV),Prostate Gland,0.30
same,AUCall,"Prostate Gland, 2 h IV infusion 15 mg/kg, Group 4",24.3415 μg equiv · h/g
same,Tissue Concentration (168 h),"Prostate Gland, 2 h IV infusion 15 mg/kg, Group 4, LLOQ 0.036",BQL
same,Tissue Concentration (168 h),"Prostate Gland, PO 15 mg/kg, Group 7, LLOQ 0.034",BQL
same,AUCall,"Prostate Gland, PO 15 mg/kg, Group 7",7.6578 μg equiv · h/g
same,AUCall Ratio (PO/IV),Salivary Gland,0.15
same,Cmax Ratio (PO/IV),Salivary Gland,0.09
same,AUCall,"Salivary Gland, 2 h IV infusion 15 mg/kg, Group 4",60.9180 μg equiv · h/g
same,Tissue Concentration (168 h),"Salivary Gland, 2 h IV infusion 15 mg/kg, Group 4, LLOQ 0.036",0.056 μg equiv/g
same,Tissue Concentration (168 h),"Salivary Gland, PO 15 mg/kg, Group 7, LLOQ 0.034",BQL
same,AUCall,"Salivary Gland, PO 15 mg/kg, Group 7",9.1933 μg equiv · h/g
same,AUCall Ratio (PO/IV),Seminal Vesicles,0.17
same,Cmax Ratio (PO/IV),Seminal Vesicles,0.45
same,AUCall,"Seminal Vesicles, 2 h IV infusion 15 mg/kg, Group 4",297.3580 μg equiv · h/g
same,Tissue Concentration (168 h),"Seminal Vesicles, 2 h IV infusion 15 mg/kg, Group 4, LLOQ 0.036",0.361 μg equiv/g
same,Tissue Concentration (168 h),"Seminal Vesicles, PO 15 mg/kg, Group 7, LLOQ 0.034",0.063 μg equiv/g
same,AUCall,"Seminal Vesicles, PO 15 mg/kg, Group 7",50.2500 μg equiv · h/g
same,AUCall Ratio (PO/IV),Skeletal Muscle,0.13
same,Cmax Ratio (PO/IV),Skeletal Muscle,0.16
same,AUCall,"Skeletal Muscle, 2 h IV infusion 15 mg/kg, Group 4",10.3485 μg equiv · h/g
same,Tissue Concentration (168 h),"Skeletal Muscle, 2 h IV infusion 15 mg/kg, Group 4, LLOQ 0.036",BQL
same,Tissue Concentration (168 h),"Skeletal Muscle, PO 15 mg/kg, Group 7, LLOQ 0.034",BQL
same,AUCall,"Skeletal Muscle, PO 15 mg/kg, Group 7",1.3265 μg equiv · h/g
same,AUCall Ratio (PO/IV),Skin (non-pigmented),0.10
same,Cmax Ratio (PO/IV),Skin (non-pigmented),0.17
same,AUCall,"Skin (non-pigmented), 2 h IV infusion 15 mg/kg, Group 4",146.2340 μg equiv · h/g
